Experimental data: patent publication US5571534A, “Drug formulations for parenteral use” (Orion-yhtyma Oy, priority 1991, dated 1996)
Converted amounts (≈) assume the structure as drawn. Like-named read-outs stand apart in the source and are kept apart here.

What was measured:
[1] = HPLC measurement of the solubility of the anti-estrogen in an aqueous solution of 2-hydroxypropyl cyclodextrin; format: physicochemical; settings: room temperature; for solubility: read-out: Toremifene solubility (mg of toremifene / ml of cyclodextrin-water soln.)
Experimental: A weighed amount of 2-hydroxypropyl cyclodextrin was dissolved into distilled water by shaking with a shaker. The so formed clear solution was equilibrated with a large excess of antiestrogen at the boiling point. […] The solution was kept overnight at room temperature and the excess of precipitated antiestrogen was removed by centrifugation.
The separations were carried out at room temperature on a 35 * 4.6 mm stainless steel column (packed with 3-μm spherical octadecylsilanebonded silica particles; HS-3 C-18, (Perkin-Elmer, USA)
The mobile phase consisted of a mixture of acetonitrile: 0.05 M aqueous phosphate buffer containing 0.004 M of dimethyloctyl amine with a pH of 7.4. The flow rate was 0.8 ml/min.

[2] = Toremifene concentration in emulsion (Emulsan 20%) after filtration, spectrophotometric at 278 nm; format: physicochemical; settings: for Concentration after filtration: toremifene citrate in Emulsan 20%
Experimental: Emulsions prepared by dissolving the drug in a commercial fat emulsion.
The commercial fat emulsion used was Emulsan®20% (manufacturer Leiras-Kabi Infusion Ltd., Finland). […] The toremifene concentrations were 10 mg/ml, 14 mg/ml and 20 mg/ml. After the homogenization the samples were filtered through the 0.2 μm, 0.45 μm and 1.2 μm filters.
The concentration of toremifene was determined from the filtrate with a spectrofotometric method using the wave length of 278 nm. The samples were dissolved in methanol and diluted in the concentration of 0.02 mg/ml.

multidrug resistance = settings: high vs low plasma concentrations; J Clinical Oncology 1989; cited from earlier work

| SMILES | Desmethyl toremifene solubility (ml of desmethyl toremifene / ml of cyclodextrin-water soln.) ([1]; 125 mg β-HPC/ml of aqueous soln.) [mg/mL] | Concentration after filtration ([2]; 10 mg/ml before filtration, 0.2 μm filter) [µg/mL] | Concentration after filtration ([2]; 10 mg/ml before filtration, 0.45 μm filter) [µg/mL] | Concentration after filtration ([2]; 10 mg/ml before filtration, 1.2 μm filter) [µg/mL] | Concentration after filtration ([2]; 14 mg/ml before filtration, 0.45 μm filter) [µg/mL] | Concentration after filtration ([2]; 14 mg/ml before filtration, 1.2 μm filter) [µg/mL] | Concentration after filtration ([2]; 20 mg/ml before filtration, 0.45 μm filter) [µg/mL] | Concentration after filtration ([2]; 20 mg/ml before filtration, 1.2 μm filter) [µg/mL] | solubility of toremifene by encapsulating in an emulsion droplet ([2]; emulsion droplet) | reversing multidrug resistance (multidrug resistance) | solubility ([1]; aqueous 2-hydroxypropyl cyclodextrin solution, 500 mg β-HPC/ml of aqueous soln.) [mg/mL] | solubility ([1]; aqueous β-hpc solution, 25 mg/ml, 25 mg β-HPC/ml of aqueous soln.) [mg/mL] | solubility ([1]; aqueous β-hpc solution, 63 mg/ml, 63 mg β-HPC/ml of aqueous soln.) [mg/mL] | solubility ([1]; aqueous β-hpc solution, 125 mg/ml, 125 mg β-HPC/ml of aqueous soln.) [mg/mL] | solubility ([1]; aqueous β-hpc solution, 250 mg/ml, 250 mg β-HPC/ml of aqueous soln.) [mg/mL] | solubility ([1]; aqueous γ-hpc solution, 125 mg/ml, 125 mg Γ-HPC/ml of aqueous soln.) [mg/mL] | solubility ([1]; aqueous γ-hpc solution, 250 mg/ml, 250 mg Γ-HPC/ml of aqueous soln.) [mg/mL] | solubility ([1]; aqueous γ-hpc solution, 500 mg/ml, 500 mg Γ-HPC/ml of aqueous soln.) [mg/mL] | solubility ([1]; water, 0 mg β-HPC/ml of aqueous soln.) [mg/mL] |
| --- | --- | --- | --- | --- | --- | --- | --- | --- | --- | --- | --- | --- | --- | --- | --- | --- | --- | --- | --- |
| CNCCOc1ccc(/C(=C(/CCCl)c2ccccc2)c2ccccc2)cc1 [desmethyl toremifene] | 21 | – | – | – | – | – | – | – | – | – | – | – | – | – | – | – | – | – | – |
| CN(C)CCOc1ccc(/C(=C(/CCCl)c2ccccc2)c2ccccc2)cc1 [toremifene] | – | 4400 | 4000 | 4400 | 4300 | 3700 | 3600 | 3600 | can be increased considerably | more effective in reversing multidrug resistance than low concentrations | 87.7 (≈ 216 mM) | 7.4 (≈ 18.2 mM) | 14.1 (≈ 34.7 mM) | 21.7 (≈ 53.5 mM) | 53 (≈ 131 mM) | 36.3 (≈ 89.4 mM) | 61.1 (≈ 151 mM) | 125 (≈ 309 mM) | 0.3 (≈ 0.739 mM) |
